Data published in patent publication US20080146555A1, “Uses of Kinase Inhibitors and Compositions Thereof” (GPC Biotech, Inc, priority 2004, published 2008).
Where a name gives a salt, the structure may show the parent alone. Read-outs that look alike come from different tables or passages of the source.

Key:
Assay type in all cases: biochemical
Cdk5 = Cdk5 (Homo sapiens, UniProt Q00535); experiment: Cdk5 inhibition
Source text: Further inhibition results for subject compounds of the invention against other CDKs and further kinases are shown in Table 5, Table II and described in Example 6.
Table 3, Table 4, Table 5 and Table II show the results obtained for inhibition of a broad range of such kinases for subject compounds of the invention.

c-Kit = target: T1, c-Kit (Homo sapiens, UniProt P10721); experiment: c-Kit kinase assay (ProQinase); settings: read-out: KIT Inhibition (IC50)
T1 construct: purchased ProQinase (printed 'ProQuinase', Freiburg, Germany)
T1 sequence (P10721 26-976): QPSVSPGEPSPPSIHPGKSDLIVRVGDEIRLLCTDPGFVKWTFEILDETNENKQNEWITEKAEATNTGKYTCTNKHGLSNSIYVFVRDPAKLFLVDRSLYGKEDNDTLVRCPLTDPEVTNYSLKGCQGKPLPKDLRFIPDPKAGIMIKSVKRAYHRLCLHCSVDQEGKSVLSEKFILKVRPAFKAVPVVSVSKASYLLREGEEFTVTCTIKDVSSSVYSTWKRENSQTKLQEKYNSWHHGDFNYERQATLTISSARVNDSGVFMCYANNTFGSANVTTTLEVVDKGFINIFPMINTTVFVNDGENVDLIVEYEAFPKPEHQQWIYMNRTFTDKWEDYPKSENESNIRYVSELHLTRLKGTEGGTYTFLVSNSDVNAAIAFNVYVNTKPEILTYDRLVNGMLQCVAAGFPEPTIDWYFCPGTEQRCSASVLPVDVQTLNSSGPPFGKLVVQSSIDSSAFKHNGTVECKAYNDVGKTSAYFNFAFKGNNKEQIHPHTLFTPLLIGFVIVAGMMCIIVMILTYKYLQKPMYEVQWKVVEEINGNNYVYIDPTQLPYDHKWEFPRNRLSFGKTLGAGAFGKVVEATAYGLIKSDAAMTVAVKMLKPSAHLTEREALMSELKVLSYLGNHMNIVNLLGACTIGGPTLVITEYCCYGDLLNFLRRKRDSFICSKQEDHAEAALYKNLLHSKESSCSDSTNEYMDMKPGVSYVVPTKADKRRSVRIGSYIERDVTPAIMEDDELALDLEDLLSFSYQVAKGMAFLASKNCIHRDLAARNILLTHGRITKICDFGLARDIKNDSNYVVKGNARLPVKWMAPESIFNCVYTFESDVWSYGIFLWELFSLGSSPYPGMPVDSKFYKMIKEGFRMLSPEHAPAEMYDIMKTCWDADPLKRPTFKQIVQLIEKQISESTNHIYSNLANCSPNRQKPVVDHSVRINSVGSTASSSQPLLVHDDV
Protocol: • c-kit can be assayed, for example, using the PanQinase Activity Assay or ProQuinase (Freiburg, Germany). Briefly:
Assay buffer-60 mM HEPES-NaOH, pH 7.5, 3 mM MgCl2, 3 mM MnCl2, 3 uM Na-orthovanadate, 1.2 mM DTT, 50 ug/ml PEG 20000, 1 uM [γ-^33P] ATP (approx. 5×10^5 cpm per well) • Reaction cocktail-20 ul assay buffer, 5 ul ATP, 5 ul test compound (in 10% DMSO), 10 ul substrate/10 ul enzyme=100 ng (pre-mixed). • The reaction cocktails are incubated at 30° C. for 80 minutes and terminated with addition of 50 ul 2% H3PO4. The plates are aspirated and washed two times with 200 ul H2O or 200 ul NaCl. Incorporation of radiolabelled substrate is determined with a microplate scintillation counter such as described in the Technical Note above.

Fyn = target: T2, Fyn (Homo sapiens, UniProt P06241); experiment: Fyn kinase assay
T2 construct: purchased Upstate 14-441
T2 sequence (P06241 whole entry): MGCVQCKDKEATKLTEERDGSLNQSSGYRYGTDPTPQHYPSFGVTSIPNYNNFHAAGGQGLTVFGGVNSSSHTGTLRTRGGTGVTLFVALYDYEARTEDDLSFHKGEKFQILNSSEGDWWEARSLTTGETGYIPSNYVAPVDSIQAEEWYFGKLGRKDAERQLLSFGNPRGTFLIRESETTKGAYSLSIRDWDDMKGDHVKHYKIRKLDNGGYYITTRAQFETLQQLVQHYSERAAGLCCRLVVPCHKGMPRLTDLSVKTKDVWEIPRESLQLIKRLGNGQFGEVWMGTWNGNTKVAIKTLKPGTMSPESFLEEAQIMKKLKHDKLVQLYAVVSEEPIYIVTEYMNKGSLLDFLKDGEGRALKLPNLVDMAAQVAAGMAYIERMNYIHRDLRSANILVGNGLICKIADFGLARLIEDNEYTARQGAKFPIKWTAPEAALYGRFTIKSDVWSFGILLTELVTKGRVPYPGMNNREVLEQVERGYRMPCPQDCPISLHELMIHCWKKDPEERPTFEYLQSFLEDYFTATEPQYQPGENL
Protocol: • 1. Assay Buffer: 200 mM Tris-HCl pH 7.5, 0.4 mM EGTA, 0.4 mM sodium orthovanadate. • 2. Magnesium/ATP Cocktail (Catalog #20-113): 500 μM cold ATP and 75 mM magnesium chloride in 20 mM MOPS, pH 7.2, 25 mM α-glycerol phosphate, 5 mM EGTA, 1 mM sodium orthovanadate, 1 mM dithiothreitol. • 3. [γ-^32P]ATP: Stock 1 mCi/100 μl (3000 Ci/mmol, obtained from DuPont-NEN). Make 10 μl aliquots (100 μCi/vial). Before starting the assay, dilute an aliquot with 90 μl of Magnesium/ATP Cocktail. • 4. Enzyme Dilution Buffer: 20 mM MOPS pH 7.5, 1 mM EDTA, 0.01% Brij-35, 5% glycerol, 0.1% β-mercaptoethanol, 1 mg/ml BSA. • 5. Fyn: Dilute with Enzyme Dilution Buffer to prepare a 4 ng-40 ng/μl stock. Use 2.5 μl per assay point. • 6. Src Substrate Peptide (Catalog #12-140): Dilute to 2.5 mM with distilled water. Use 2.5 μl per say point.
• 1. Add 6.25 μl of Assay Buffer per assay. • 2. Add 2.5 μl of diluted Fyn. • 3. Add 2.5 μl Src Substrate peptide (250 μM). • 4. Add 3.75 μl distilled water. • 5. Add 10 μl of the [γ-^32P]ATP solution. • 6. Incubate for 10 minutes at 30° C. • 7. Transfer a 20 μl aliquot onto the center of a 2 cm×2 cm P81 paper. • 8. Wash assay squares three times with 0.75% phosphoric acid for 5 minutes per wash. • 9. Wash assay squares once with acetone for 1-2 minutes. • 10. Transfer assay squares to a scintillation vial and add 1 ml scintillation cocktail. • 11. Read in scintillation counter. Compare cpm of enzyme samples to cpm of control samples that contain no enzyme (background control).

Abl (c-Abl) = target: T3, Abl (c-Abl) (Homo sapiens, UniProt P00519); experiment: Abl kinase assay
T3 construct: purchased Upstate 14-529
T3 sequence (P00519 whole entry): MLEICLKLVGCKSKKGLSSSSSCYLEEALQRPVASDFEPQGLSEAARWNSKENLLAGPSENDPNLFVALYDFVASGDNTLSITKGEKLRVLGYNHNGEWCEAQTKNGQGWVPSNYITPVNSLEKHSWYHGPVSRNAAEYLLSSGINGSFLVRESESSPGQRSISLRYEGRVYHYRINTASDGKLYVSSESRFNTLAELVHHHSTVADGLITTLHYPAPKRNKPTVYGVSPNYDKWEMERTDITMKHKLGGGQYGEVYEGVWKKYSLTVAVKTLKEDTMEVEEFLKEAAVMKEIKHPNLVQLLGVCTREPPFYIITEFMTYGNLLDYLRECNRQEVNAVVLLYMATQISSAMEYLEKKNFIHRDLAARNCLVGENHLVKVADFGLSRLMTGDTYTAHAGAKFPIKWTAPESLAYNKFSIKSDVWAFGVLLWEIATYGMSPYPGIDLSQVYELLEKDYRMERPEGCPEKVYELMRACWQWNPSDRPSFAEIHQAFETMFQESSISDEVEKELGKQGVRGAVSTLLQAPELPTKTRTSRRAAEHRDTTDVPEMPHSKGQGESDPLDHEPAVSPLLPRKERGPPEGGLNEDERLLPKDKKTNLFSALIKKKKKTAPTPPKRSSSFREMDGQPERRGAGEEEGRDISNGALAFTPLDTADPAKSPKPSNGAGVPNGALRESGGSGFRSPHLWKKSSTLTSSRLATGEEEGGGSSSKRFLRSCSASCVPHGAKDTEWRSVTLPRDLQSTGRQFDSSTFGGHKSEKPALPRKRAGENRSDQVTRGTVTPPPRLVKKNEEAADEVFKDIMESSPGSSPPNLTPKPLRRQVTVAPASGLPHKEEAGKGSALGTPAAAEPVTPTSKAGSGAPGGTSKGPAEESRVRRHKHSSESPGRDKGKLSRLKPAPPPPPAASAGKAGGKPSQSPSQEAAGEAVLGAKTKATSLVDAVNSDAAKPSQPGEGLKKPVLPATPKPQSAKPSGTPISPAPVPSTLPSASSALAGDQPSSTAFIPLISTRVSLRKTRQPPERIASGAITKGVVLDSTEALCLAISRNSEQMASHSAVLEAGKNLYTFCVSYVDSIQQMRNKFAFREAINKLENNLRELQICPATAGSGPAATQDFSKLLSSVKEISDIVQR
Protocol: • 1. 5× Reaction Buffer: 40 mM MOPS, pH 7.0, 1 mM EDTA. • 2. Enzyme Dilution Buffer (EDB): 20 mM MOPS, pH 7.0, 1 mM EDTA, 0.01% Brij-35, 5% glycerol, 0.1% β-mercaptoethanol, 1 mg/ml BSA. • 3. Abl, active: Dilute to 0.2-8 ng/μl with EDB. Use 2.5-μl per assay point. • 4. […] Use 2.5 μl per assay point for a final assay concentration of 50 μM per assay point. • 5. [γ-^32P]ATP: Stock 1 mCi/100 μl (3000 Ci/mmol, obtained from PerkinElmer, Cat. # BLU002A). Make 10 μl aliquots (100 μCi/vial).
• 1. Add 5 μl of 5× Reaction Buffer per assay. • 2. Add 2.5 μl of Abltide (50 μM). • 3. Add 2.5 μl of Abl (human), active (0.5-20 ng). • 4. Add 5 μl sterile, distilled water. • 5. Add 10 μl of the diluted [γ-^32P]ATP solution. • 6. Incubate for 10 minutes at 30° C. • 7. Transfer a 20 μl aliquot onto the center of a 2 cm×2 cm P81 paper. • 8. […] Wash the assay squares once for 5 minutes with acetone. • 10. Transfer the assay squares to vial and add 5 ml scintillation cocktail. • 11. Read in scintillation counter. Compare cpm of enzyme samples to cpm of control samples that contain background control.

[1] = read-out: FYN Inhibition (IC50)
[2] = Table II, read-out: ABL1 Inhibition (IC50)
[3] = read-out: Abl (wild-type c-Abl) IC50

Cdk5, sequence (Q00535 whole entry, species assumed): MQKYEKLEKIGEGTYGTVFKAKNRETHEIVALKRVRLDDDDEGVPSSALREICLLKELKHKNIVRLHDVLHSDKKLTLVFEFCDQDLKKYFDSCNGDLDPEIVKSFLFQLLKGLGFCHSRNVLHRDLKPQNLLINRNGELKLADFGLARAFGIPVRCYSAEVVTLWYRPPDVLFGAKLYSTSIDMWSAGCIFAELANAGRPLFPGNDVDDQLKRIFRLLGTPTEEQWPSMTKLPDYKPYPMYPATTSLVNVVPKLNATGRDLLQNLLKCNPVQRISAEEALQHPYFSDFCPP
Cdk5, sequence (Q15078 whole entry partner, species assumed): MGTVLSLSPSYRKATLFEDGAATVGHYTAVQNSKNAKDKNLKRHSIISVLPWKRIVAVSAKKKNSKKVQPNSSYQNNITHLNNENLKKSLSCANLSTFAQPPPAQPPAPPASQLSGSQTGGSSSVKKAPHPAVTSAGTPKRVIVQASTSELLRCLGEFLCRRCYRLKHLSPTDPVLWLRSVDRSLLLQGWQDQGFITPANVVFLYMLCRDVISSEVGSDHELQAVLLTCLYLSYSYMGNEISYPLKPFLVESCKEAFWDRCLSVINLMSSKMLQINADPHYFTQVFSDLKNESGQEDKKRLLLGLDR

SMILES	IC50 (Cdk5) [nM]	IC50 (c-Kit) [nM]	IC50 (Fyn; kinase panel, 10 μM ATP, read-out: Fyn IC50) [nM]	IC50 (Fyn; [1]) [nM]	IC50 (Abl (c-Abl); Table AA, read-out: Abl IC50) [nM]	IC50 (Abl (c-Abl); [2]) [nM]	IC50 (Abl (c-Abl); [3]) [nM]
COCCN1CCN(Cc2ccc(-c3n[nH]c4c3C(=O)c3c(NC(=O)NN5CCOCC5)cccc3-4)cc2)CC1 [Compound B16, N-[3-(4-{[4-(2-methoxyethyl)piperazinyl]methyl}phenyl)-4-oxoindeno[2,3-d]pyrazol-5-yl](morpholin-4-ylamino)carboxamide dihydrochloride]	< 5	< 500	< 100	< 50	52	< 100	< 100
CC(C)N1CCN(C(=O)COc2ccc(-c3n[nH]c4c3C(=O)c3c(NC(=O)NN5CCOCC5)cccc3-4)cc2)CC1 [Compound A37]	< 5	< 500		< 100	35	< 50	< 50
